Reference: patent publication US20240252697A1, “INACTIVATION OF PATHOGENS IN EX VIVO BLOOD PRODUCTS IN STORAGE BAGS USING VISIBLE LIGHT” (priority 2015, published 2024)
Marks after values point to notes of the source that are not given here.

Tested on: feline calicivirus (FCV)
Assay: 405 nm light inactivation of FCV suspended in supplemented minimal medium, counted by plaque assay on FEA cells
Format: cell-based, feline calicivirus vaccine strain F9

Cc1cc2nc3c(=O)[nH]c(=O)nc-3n(C[C@H](O)[C@H](O)[C@H](O)CO)c2cc1C [Riboflavin]
Log10 reduction/inactivation of FCV (FCV in MM plus components at DMEM concentrations, after): 1.3 Log10
Exposed Viral Population (±St Dev) (FCV in minimal media plus photosensitive components at DMEM concentrations, 155 mW cm^−2, mean count n = 3 ± SD): 3.77 ± 0.61
Log10 Reduction (FCV in minimal media plus photosensitive components, 155 mW cm^−2, exposed vs non-exposed control, asterisk = P ≤ 0.05): 1.28* Log10
